In US9730447B2, “Fungicidal amides” (E I DU PONT DE NEMOURS AND COMPANY, priority 2013, dated 2017):

Experiments:
Assay type in all cases: in vivo
[1] = test system: Stagonospora nodorum (also known as Septoria nodorum); experiment: Test B: preventive spray on wheat seedlings, Stagonospora nodorum (wheat glume blotch), visual disease rating; conditions: 100 = 100% disease control, 0 = no control, unmarked values
Summary of the method: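 Compounds in acetone/water (50/50) with 250 ppm Trem 014 surfactant were sprayed to run-off at 40 ppm (160 g ai/ha) or 10 ppm (40 g ai/ha). Seedlings were inoculated with S. nodorum spores the next day, then held 48 h saturated at 20 °C and 6 days in a growth chamber at 20 °C. Visual rating as % disease control vs untreated.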

Septoria tritici = experiment: Test C: preventive spray on wheat seedlings, Septoria tritici (wheat leaf blotch), visual disease rating; conditions: 100 = 100% disease control, 0 = no control, unmarked values
Summary of the method: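 Wheat seedlings sprayed to run-off at 40 ppm or 10 ppm (160 or 40 g ai/ha) in acetone/water with surfactant, inoculated with Septoria tritici spores next day. Held 48 h saturated at 24 °C, then 21 days at 20 °C. Visual rating scored as % disease control relative to controls.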

Botrytis cinerea = experiment: Test A: preventive spray on tomato seedlings, Botrytis cinerea (gray mold), visual disease rating; conditions: 100 = 100% disease control, 0 = no control relative to controls, unmarked values
Summary of the method: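 Tomato seedlings sprayed to run-off with 40 ppm or 10 ppm suspensions (160 or 40 g ai/ha) in acetone/water with 250 ppm surfactant. Inoculated with B. cinerea spores next day, held saturated at 20 °C for 48 h, then 27 °C for 2 days. Visual rating, 0–100% disease control relative to controls.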

[2] = test system: Erysiphe graminis f. sp. tritici; experiment: Test E: preventive spray on wheat seedlings, Erysiphe graminis f. sp. tritici (wheat powdery mildew), visual disease rating; conditions: 100 = 100% disease control, 0 = no control, unmarked values
Summary of the method: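 Wheat seedlings were sprayed to run-off with 40 or 10 ppm suspension (160 or 40 g ai/ha) and dusted with spores the next day. They were then kept 8 days at 20 °C. Disease was rated visually as % control relative to untreated controls (0–100).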

[3] = test system: Puccinia recondite f. sp. tritici; experiment: Test D: preventive spray on wheat seedlings, Puccinia recondite f. sp. tritici (wheat leaf rust), visual disease rating; conditions: 100 = 100% disease control, 0 = no control, unmarked values
Summary of the method: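 Wheat seedlings sprayed to run-off with 40 ppm (160 g ai/ha) or 10 ppm (40 g ai/ha) suspension in acetone/water with 250 ppm surfactant, inoculated next day with leaf rust spores. After 24 h saturated at 20 °C then 6 days at 20 °C, visual rating of disease control (0–100) relative to controls.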

| Structure (SMILES) | Test B disease control rating [1] | Test C disease control rating (Septoria tritici) | Test A disease control rating (Botrytis cinerea) | Test E disease control rating [2] | Test D disease control rating [3] |
| --- | --- | --- | --- | --- | --- |
| Cn1cc(C(=O)Nc2ccccc2-c2cnc(-n3cc(Cl)cn3)c(Cl)c2)c(C(F)F)n1 [compound 62] | 0% | 100% | 84% | 98% | 100% |
| Cc1cc(-c2ccccc2NC(=O)c2ccccc2C(F)(F)F)cnc1-n1cc(Cl)cn1 [compound 63] | 0% | 92% | 27% | 72% | 99% |
| Cc1cc(-c2ccccc2NC(=O)c2ncccc2C(F)(F)F)cnc1-n1cc(Cl)cn1 [compound 64] | 60% | 100% | 98% | 96% | 100% |
| Cc1cc(-c2ccccc2NC(=O)c2cn(C)nc2C(F)F)cnc1-n1cc(Cl)cn1 [compound 65] | 97% | 100% | 99% | 94% | 100% |
| O=C(Nc1ccccc1-c1ccc(-n2cc(Cl)cn2)nc1)c1ccccc1C(F)(F)F [compound 66] | 0% | 18% | 32% | 0% | 89% |
| O=C(Nc1ccccc1-c1ccc(-n2cc(Cl)cn2)nc1)c1ncccc1Cl [compound 67] | 0% | 62% | 7% | 0% | 90% |
| O=C(Nc1ccccc1-c1cnc(-n2ccc(Cl)n2)c(F)c1)c1ncccc1C(F)(F)F [compound 69] | 100% | 100% | 99% | 100% | 100% |
| O=C(Nc1ccccc1-c1cnc(-n2cc(Cl)cn2)c(F)c1)c1ncccc1C(F)(F)F [compound 70] | 99% | 100% | 99% | 100% | 100% |
| O=C(Nc1ccccc1-c1cnc(-n2ccc(Br)n2)c(F)c1)c1ncccc1C(F)(F)F [compound 71] | 100% | 100% | 94% | 100% | 100% |
| O=C(Nc1ccccc1-c1cnc(-n2ccc(-c3ccccc3)n2)c(F)c1)c1ncccc1C(F)(F)F [compound 72] | 0% | 100% | 92% | 91% | 97% |
| Cn1cc(C(=O)Nc2ccccc2-c2cnc(-n3ccc(Cl)n3)c(F)c2)c(C(F)F)n1 [compound 73] | 100% | 100% | 96% | 100% | 100% |
| Cn1cc(C(=O)Nc2ccccc2-c2cnc(-n3cc(Cl)cn3)c(F)c2)c(C(F)F)n1 [compound 74] | 0% | 100% | 96% | 100% | 100% |
| Cn1cc(C(=O)Nc2ccccc2-c2cnc(-n3ccc(Br)n3)c(F)c2)c(C(F)F)n1 [compound 75] | 98% | 100% | 99% | 100% | 100% |
| Cn1cc(C(=O)Nc2ccccc2-c2cnc(-n3ccc(-c4ccccc4)n3)c(F)c2)c(C(F)F)n1 [compound 76] | 0% | 100% | 99% | 99% | 100% |
